Entries after “also recorded” stand apart in the source; their conditions may differ.
Tests used:
rat = assay: In vivo rodent brain assay: intraventricular injection, eating behavior; settings: intraventricular (third ventricle) injection of 5 μg MCH in 5 μl phosphate buffered saline, versus saline controls
Text: As discussed herein, rodents, e.g., rats, can be used to assay MCH activity in vivo. A Teflon catheter can be inserted into the third ventricle of a rat and cemented into place. MCH or its analogs, e.g., agonists or antagonists, can be introduced by way of the catheter at various concentrations, and their effect on eating behavior determined.
To further evaluate the importance of MCH as an appetite regulator, a Teflon catheter was inserted into the third ventricle of a rat and cemented into place, followed by intraventricular injection of 5 μg of MCH in 5 μl of phosphate buffered saline. Control animals received only phosphate buffered saline.

MC3-R = target: T1, MC3-R (Mus musculus, UniProt P33033); assay: HEK-293 assay: ACTH binding to MC3-R after exposure to MCH; format: cell-based; settings: HEK-293 cells stably transfected with MC3-R; exposure to 10^-7 M MCH for 20 minutes or overnight
T1 construct: expressed in transfected cells; host or cells: HEK-293 (human kidney), stably transfected
T1 sequence (P33033 whole entry): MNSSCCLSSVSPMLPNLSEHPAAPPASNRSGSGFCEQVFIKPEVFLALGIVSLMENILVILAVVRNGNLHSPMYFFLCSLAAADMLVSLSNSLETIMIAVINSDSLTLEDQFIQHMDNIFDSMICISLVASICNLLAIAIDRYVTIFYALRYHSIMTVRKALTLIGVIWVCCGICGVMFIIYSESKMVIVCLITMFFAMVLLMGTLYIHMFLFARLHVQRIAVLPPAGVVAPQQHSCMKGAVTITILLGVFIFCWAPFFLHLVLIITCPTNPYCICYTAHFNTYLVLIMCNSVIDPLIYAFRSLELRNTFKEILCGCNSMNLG
Procedure: As discussed herein, heterologous human kidney, HEK-293 cells stably transfected with a plasmid carrying MC3-R can be used to assay MCH activity. It is not clear whether the MCH interaction with the MC3-R receptor is direct or indirect, but application of MCH results in an increase in binding of ACTH to the MC3-R receptor. […] Exposure of cells to 10^-7 M MCH for 20 minutes or overnight results in a 15-100% increase in ACTH binding.

melanocyte concentrating hormone [MCH]
Kcal consumed within one hour (rat): more than doubling; also recorded: doubling
increase in ACTH binding (MC3-R): 15-100%
